Source: patent US20250214978A1, “AT2R AGONIST” (WUHAN HUMANWELL INNOVATIVE DRUG RESEARCH AND DEVELOPMENT …, priority 2022, published 2025)

Molecular target: AT2R (Homo sapiens (Human), UniProt P50052)
Assay: Binding assay of compounds to AT2R (Tag-lite HTRF ligand binding kit)
Conditions: 1 hour incubation at room temperature
Procedure: The assay was performed in accordance with the instruction manual of Angiotensin AT2 Receptor Ligand Binding Assay Kit (#C1TT1AT2, Cisbio). First, a compound stock solution (10 mM) was diluted in a gradient at a 5× dilution ratio (including 10 concentrations, each with two replicates). 160 nL of compounds at different concentrations was added to a 384-well plate. 40 μL of 1×TLB was added to each well, and the mixture was shaken at room temperature for 15 minutes. 15 mL centrifuge tube added with 5 mL of 1×TLB was prepared in advance. The frozen labeled cells were thawed in a water bath at 37° C. (for 1 to 2 minutes), and the thawed cells were quickly transferred to the above 15 mL centrifuge tube. The mixture was mixed well and centrifuged at 1,000 g at room temperature for 5 minutes. The supernatant was removed, and the cells were resuspended by adding 2.7 mL 1×TLB. A new 384-well plate was taken, and 10 μL of mixed cells were added into the corresponding wells according to the assay design. 5 μL of 4× compound solution and 5 μL of 4× Tag-lite red fluorescent labeled ligand were added to each well. After incubation at room temperature for 1 hour, data were read using EnVision with an HTRF mode. The excitation light intensities at 665 nM and 615 nM in each well were read respectively, and the ratio was calculated (Ratio=A665nMIB615 nM). The IC50 value was calculated by means of GraphPad Prism8 software, where X represents logarithmic value of compound concentration; and Y represents ratio of A665 nM/B615 nM.

Chain of AT2R (P50052 whole entry): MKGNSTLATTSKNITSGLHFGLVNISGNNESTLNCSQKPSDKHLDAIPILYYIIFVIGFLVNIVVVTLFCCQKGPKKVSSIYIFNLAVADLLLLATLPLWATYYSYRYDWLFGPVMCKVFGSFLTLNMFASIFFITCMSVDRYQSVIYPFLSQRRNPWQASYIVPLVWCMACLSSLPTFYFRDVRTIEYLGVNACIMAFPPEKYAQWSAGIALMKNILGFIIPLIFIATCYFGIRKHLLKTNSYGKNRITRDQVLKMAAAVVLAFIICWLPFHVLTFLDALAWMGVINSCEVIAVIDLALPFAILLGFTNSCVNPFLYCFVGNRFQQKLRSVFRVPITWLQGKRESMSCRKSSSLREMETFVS

Compound	IC50 [nM]
CCCCOC(=O)NS(=O)(=O)c1sc(CC(C)C)cc1-c1ccc(Cn2ccnc2)cc1C [Compound I-1, Butyl ((3-(4-((1H-imidazol-1-yl)methyl)-2-methylphenyl)-5-isobutylthiophen-2-yl)sulfonyl)carbamate]	4.28
CCCCOC(=O)NS(=O)(=O)c1sc(CC(C)C)cc1-c1ccc(Cn2ccnc2)c(C)c1 [Compound I-2, Butyl ((3-(4-((1H-imidazol-1-yl)methyl)-3-methylphenyl)-5-isobutylthiophen-2-yl)sulfonyl)carbamate]	3.32
CCCCOC(=O)NS(=O)(=O)c1sc(CC(C)C)cc1-c1ccc(Cn2ccnc2)cc1C#N [Compound I-3, Butyl ((3-(4-((1H-imidazol-1-yl)methyl)-2-cyanophenyl)-5-isobutylthiophen-2-yl)sulfonyl)carbamate]	3.95
CCCCOC(=O)NS(=O)(=O)c1sc(CC(C)C)cc1-c1ccc(Cn2ccnc2)c(C#N)c1 [Compound I-4, Butyl ((3-(4-((1H-imidazol-1-yl)methyl)-3-cyanophenyl)-5-isobutylthiophen-2-yl)sulfonyl)carbamate]	3.54
CCCCOC(=O)NS(=O)(=O)c1sc(CC(C)C)cc1-c1ccc(Cn2ccnc2)nc1 [Compound I-6, Butyl ((3-(6-((1H-imidazol-1-yl)methyl)pyridin-3-yl)-5-isobutylthiophen-2-yl)sulfonyl)carbamate]	11.4
CCCCOC(=O)NS(=O)(=O)c1sc(CC(C)C)cc1-c1ccc(C(C)n2ccnc2)cc1 (stereo not shown) [Compound I-7, Butyl ((3-(4-(1-(1H-imidazol-1-yl)ethyl)phenyl)-5-isobutylthiophen-2-yl)sulfonyl)carbamate]	3.8
CCCCOC(=O)NS(=O)(=O)c1sc(CC(C)C)c(C)c1-c1ccc(Cn2ccnc2)cc1 [Compound I-8, Butyl ((3-(4-((1H-imidazol-1-yl)methyl)phenyl)-5-isobutyl-4-methylthiophen-2-yl)sulfonyl)carbamate]	4.4
COC(=O)NS(=O)(=O)c1sc(CC(C)C)cc1-c1ccc(Cn2ccnc2C)cc1C#N [Compound I-10, Methyl (3-(2-cyano-4-((2-methyl-1H-imidazol-1-yl)methyl)phenyl)-5-isobutylthiophen-2-yl)sulfonylcarbamate]	2.15
COC(=O)NS(=O)(=O)c1sc(CC(C)C)cc1-c1ccc(Cn2ccnc2C(C)(C)C)cc1C#N [Compound I-17, Methyl (3-(4-((2-(tert-butyl)-1H-imidazol-1-yl)methyl)-2-cyanophenyl)-5-isobutylthiophen-2-yl)sulfonylcarbamate]	2.09
Cc1nccn1Cc1ccc(-c2cc(CC(C)C)sc2S(=O)(=O)NC(=O)NCCC(F)(F)F)c(C#N)c1 [Compound I-18, 3-(2-cyano-4-((2-methyl-1H-imidazol-1-yl)methyl)phenyl)-5-isobutyl-N-((3,3,3-trifluoropropyl)carbamoyl)thiophene-2-sulfonamide]	1.63
Cc1cc(Cn2ccnc2C)ccc1-c1cc(CC(C)C)sc1S(=O)(=O)NC(=O)NCc1ccccn1 [Compound I-19, 5-isobutyl-3-(2-methyl-4-((2-methyl-1H-imidazol-1-yl)methyl)phenyl)-N-((pyridin-2-ylmethyl)carbamoyl)thiophene-2-sulfonamide]	1
COC(=O)NS(=O)(=O)c1sc(CC(C)C)cc1-c1ccc(Cn2ccnc2C)c(C)c1 [Compound I-21, Methyl ((5-isobutyl-3-(3-methyl-4-((2-methyl-1H-imidazol-1-yl)methyl)phenyl)thiophen-2-yl)sulfonyl)carbamate]	2.73
CCNC(=O)NS(=O)(=O)c1sc(CC(C)C)cc1-c1ccc(Cn2ccnc2C)c(C)c1 [Compound I-22, N-(ethylcarbamoyl)-5-isobutyl-3-(3-methyl-4-((2-methyl-1H-imidazol-1-yl)methyl)phenyl)thiophene-2-sulfonamide]	7.28
Cc1cc(-c2cc(CC(C)C)sc2S(=O)(=O)NC(=O)NCCO)ccc1Cn1ccnc1C [Compound I-23, N-((2-hydroxyethyl)carbamoyl)-5-isobutyl-3-(3-methyl-4-((2-methyl-1H-imidazol-1-yl)methyl)phenyl)thiophene-2-sulfonamide]	11.3
COC(=O)NS(=O)(=O)c1sc(CC(C)C)cc1-c1ccc(Cn2ccnc2C)c(C#N)c1 [Compound I-24, Methyl ((3-(3-cyano-4-((2-methyl-1H-imidazol-1-yl)methyl)phenyl)-5-isobutylthiophen-2-yl)sulfonyl)carbamate]	1.51
COC(=O)NS(=O)(=O)c1sc(CC(C)C)cc1-c1ccc(Cn2ccnc2C(C)(C)C)cc1C [Compound I-25, Methyl ((3-(4-((2-(tert-butyl)-1H-imidazol-1-yl)methyl)-2-methylphenyl)-5-isobutylthiophen-2-yl)sulfonyl)carbamate]	5.65
COC(=O)NS(=O)(=O)c1sc(CC(C)C)c(C)c1-c1ccc(Cn2ccnc2C(C)(C)C)cc1 [Compound I-26, Methyl ((3-(4-((2-(tert-butyl)-1H-imidazol-1-yl)methyl)phenyl)-5-isobutyl-4-methylthiophen-2-yl)sulfonyl)carbamate]	3.76
COC(=O)NS(=O)(=O)c1sc(CC(C)C)cc1-c1ccc(Cn2ccnc2C(C)C)c(C#N)c1 [Compound I-27, Methyl ((3-(3-cyano-4-((2-isopropyl-1H-imidazol-1-yl)methyl)phenyl)-5-isobutylthiophen-2-yl)sulfonyl)carbamate]	3.35
CCOC(=O)NS(=O)(=O)c1sc(CC(C)C)c(C)c1-c1ccc(Cn2ccnc2C)cc1 [Compound I-28, Ethyl ((5-isobutyl-4-methyl-3-(4-((2-methyl-1H-imidazol-1-yl)methyl)phenyl)thiophen-2-yl)sulfonyl)carbamate]	4.06
CCCOC(=O)NS(=O)(=O)c1sc(CC(C)C)c(C)c1-c1ccc(Cn2ccnc2C)cc1 [Compound I-29, Propyl ((5-isobutyl-4-methyl-3-(4-((2-methyl-1H-imidazol-1-yl)methyl)phenyl)thiophen-2-yl)sulfonyl)carbamate]	4.5
CCCCOC(=O)NS(=O)(=O)c1sc(CC(C)C)c(C)c1-c1ccc(Cn2ccnc2C)cc1 [Compound I-31, Butyl ((5-isobutyl-4-methyl-3-(4-((2-methyl-1H-imidazol-1-yl)methyl)phenyl)thiophen-2-yl)sulfonyl)carbamate]	4.86
CCc1nccn1Cc1ccc(-c2c(S(=O)(=O)NC(=O)OC)sc(CC(C)C)c2C)cc1 [Compound I-32, Methyl ((3-(4-((2-ethyl-1H-imidazol-1-yl)methyl)phenyl)-5-isobutyl-4-methylthiophen-2-yl)sulfonyl)carbamate]	1.32
COC(=O)NS(=O)(=O)c1sc(CC(C)C)c(C)c1-c1ccc(Cn2ccnc2C(C)C)cc1 [Compound I-33, Methyl ((5-isobutyl-3-(4-((2-isopropyl-1H-imidazol-1-yl)methyl)phenyl)-4-methylthiophen-2-yl)sulfonyl)carbamate]	1.61
COC(=O)NS(=O)(=O)c1sc(CC(C)C)c(C)c1-c1ccc(Cn2ccnc2C)c(C)c1 [Compound I-35, Methyl ((5-isobutyl-4-methyl-3-(3-methyl-4-((2-methyl-1H-imidazol-1-yl)methyl)phenyl)thiophen-2-yl)sulfonyl)carbamate]	3.4
CCCCOC(=O)NS(=O)(=O)c1sc(CC(C)C)cc1-c1ccc(Cn2ccnc2C)cc1C [Compound I-36, Butyl ((5-isobutyl-3-(2-methyl-4-((2-methyl-1H-imidazol-1-yl)methyl)phenyl)thiophen-2-yl)sulfonyl)carbamate]	2.39
